Values of other authors in patent US7449585B2, “Indazol-3-ones and analogues and derivatives thereof which modulate the function of the vanilloid-1 receptor (VR1)” (Merck Sharp & Dohme Ltd., priority 2003, dated 2008).

Target: VR1 (Rattus norvegicus, UniProt O35433)
Conditions: literature (Wahl et al., Mol. Pharmacol, 59:9, 2001)

VR1, sequence (O35433 whole entry): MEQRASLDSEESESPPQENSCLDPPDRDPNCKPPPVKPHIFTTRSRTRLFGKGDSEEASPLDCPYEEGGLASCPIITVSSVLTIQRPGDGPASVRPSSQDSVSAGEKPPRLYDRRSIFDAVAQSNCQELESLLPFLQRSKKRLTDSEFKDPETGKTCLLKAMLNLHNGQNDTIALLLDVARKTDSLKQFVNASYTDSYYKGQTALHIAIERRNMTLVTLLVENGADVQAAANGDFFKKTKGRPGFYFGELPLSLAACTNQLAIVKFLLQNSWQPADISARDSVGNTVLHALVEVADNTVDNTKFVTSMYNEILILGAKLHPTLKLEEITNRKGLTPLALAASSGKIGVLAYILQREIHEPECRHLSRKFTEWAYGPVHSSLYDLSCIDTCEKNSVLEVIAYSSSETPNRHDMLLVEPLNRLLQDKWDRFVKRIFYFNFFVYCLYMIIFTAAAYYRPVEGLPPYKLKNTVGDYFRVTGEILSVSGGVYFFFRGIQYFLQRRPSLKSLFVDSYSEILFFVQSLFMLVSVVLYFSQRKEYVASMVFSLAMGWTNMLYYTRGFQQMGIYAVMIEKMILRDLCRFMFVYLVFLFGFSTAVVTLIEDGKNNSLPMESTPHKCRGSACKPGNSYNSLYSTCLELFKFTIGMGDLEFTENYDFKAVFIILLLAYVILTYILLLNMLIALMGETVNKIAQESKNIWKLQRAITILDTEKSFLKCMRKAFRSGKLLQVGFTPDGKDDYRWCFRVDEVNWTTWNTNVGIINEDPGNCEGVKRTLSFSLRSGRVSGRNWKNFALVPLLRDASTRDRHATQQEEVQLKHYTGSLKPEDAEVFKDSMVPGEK

In the case of `C=C(C)[C@]12C[C@@H](C)[C@@]34O[C@](Cc5ccccc5)(O[C@@H]1[C@@H]3C=C(COC(=O)Cc1cc(I)c(O)c(OC)c1)C[C@]1(O)C(=O)C(C)=C[C@@H]41)O2` [Iodo-resiniferatoxin], the “VR1 antagonist potency (in words)” value is given as “nanomolar antagonist”.
